According to patent US8624034B2, “Fluoro-pyridinone derivatives useful as antibacterial agents” (Pfizer Inc., priority 2011, dated 2014):
Values after ≈ are worked out from the molar mass of the structure shown. Like-named read-outs stand apart in the source and are kept apart here.

What was measured:
[1] = molecular target: T1, Pseudomonas aeruginosa LpxC enzyme (Pseudomonas aeruginosa, UniProt P47205); test: IC50 assay, LpxC enzyme from P. aeruginosa (PA LpxC enzyme IC50); type: biochemical; settings: LpxC enzyme 0.1 nM, 25° C., 1 hour
T1 construct: made in house; host or cells: E. coli
T1 sequence (P47205 1-303): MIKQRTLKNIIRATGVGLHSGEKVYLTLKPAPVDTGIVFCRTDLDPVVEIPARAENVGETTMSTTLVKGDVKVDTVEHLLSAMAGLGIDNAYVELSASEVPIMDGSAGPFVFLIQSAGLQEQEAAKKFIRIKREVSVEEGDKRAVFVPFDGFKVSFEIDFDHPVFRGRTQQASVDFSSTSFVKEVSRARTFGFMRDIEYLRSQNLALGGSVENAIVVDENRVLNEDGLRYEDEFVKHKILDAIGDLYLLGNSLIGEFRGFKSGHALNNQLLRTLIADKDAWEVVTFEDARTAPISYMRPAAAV
Summary of the method: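 IC50 values came from percent conversion, referenced to a no-enzyme control. Conversion was read by RapidFire HTMS mass spectrometry after HCl quench of the 1 h enzyme reaction.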

[2] = system: Escherichia coli EC-1: VOGEL, mouse virulent; test: MIC determination, EC-1; type: cell-based; settings: Escherichia coli, read-out: EC-1 (MIC), Table 2, lower of duplicate values
Summary of the method: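 Duplicate runs differing by more than 2-fold were repeated, and otherwise the lower MIC was kept. The test organism was E. coli EC-1 (VOGEL, mouse virulent), incubated overnight across 2-fold compound dilutions following CLSI guidelines. The MIC was read visually as the lowest concentration inhibiting growth relative to drug-free control.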

[3] = system: Acinetobacter baumannii/haemolyticus, multidrug-resistant clinical isolate (AB-3167); test: MIC determination, AB-3167; type: cell-based; settings: Table 2, lower of duplicate values
Summary of the method: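 MIC read visually after overnight growth across 2-fold concentration steps in the CLSI dilution method against the multidrug-resistant clinical isolate. Duplicate determinations, lower value reported when within 2-fold, otherwise repeated; every run checked with control organisms and reference drugs.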

[4] = system: Pseudomonas aeruginosa UI-18: wild-type (PA-7); test: MIC determination, PA-7; type: cell-based; settings: Table 2, lower of duplicate values
Summary of the method: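 P. aeruginosa UI-18 (wild-type) tested by CLSI broth dilution (M7-A8), 2-fold compound series incubated overnight. MIC read visually as lowest concentration preventing growth versus drug-free control; duplicates within 2-fold, lower value reported, with QC organisms and reference compounds in range.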

Structure (SMILES) | IC50 ([1]; Table 2, read-out: PA:IC50) [nM] | MIC [2] [µg/mL] | MIC [3] [µg/mL] | MIC [4] [µg/mL] | IC50 ([1]; PA:IC50, Table 2) [nM]
C[C@@](CCn1cc(F)c(-c2ccc(S(F)(F)(F)(F)F)cc2)cc1=O)(C(=O)NO)S(C)(=O)=O [Example 12, (2R)-4-{5-Fluoro-2-oxo-4-[4-(pentafluoro-6λ-sulfanyl)phenyl]pyridin-1(2H)-yl}-N-hydroxy-2-methyl-2-(methylsulfonyl)butanamide] | 1.14 | 4 (≈ 7.87 µM) | > 64 | 4 (≈ 7.87 µM) | 
C[C@@](CCn1cc(F)c(-c2ccc3c(c2)CCCO3)cc1=O)(C(=O)NO)S(C)(=O)=O [Example 8, (2R)-4-[4-(3,4-Dihydro-2H-chromen-6-yl)-5-fluoro-2-oxopyridin-1(2H)-yl]-N-hydroxy-2-methyl-2-(methylsulfonyl)butanamide] | 0.377 | 0.5 (≈ 1.14 µM) | > 64 | 1 (≈ 2.28 µM) | 
Cc1cnn(-c2ccc(-c3cc(=O)n(CC[C@](C)(C(=O)NO)S(C)(=O)=O)cc3F)cc2)n1 [Example 23, (2R)-4-{5-Fluoro-4-[4-(4-methyl-2H-1,2,3-triazol-2-yl)phenyl]-2-oxopyridin-1(2H)-yl}-N-hydroxy-2-methyl-2-(methylsulfonyl)butanamide] | 0.287 | 0.06 (≈ 0.129 µM) | > 64 | 0.5 (≈ 1.08 µM) | 
Cc1cccc(-c2cc(=O)n(CC[C@](C)(C(=O)NO)S(C)(=O)=O)cc2F)c1 [Example 13, (2R)-4-[5-Fluoro-4-(3-methylphenyl)-2-oxopyridin-1(2H)-yl]-N-hydroxy-2-methyl-2-(methylsulfonyl)butanamide] | 1.05 | 1 (≈ 2.52 µM) | > 64 | 1 (≈ 2.52 µM) | 
COc1c(-c2ccccc2)c(F)cn(CC[C@](C)(C(=O)NO)S(C)(=O)=O)c1=O [Example 39, (2R)-4-(5-Fluoro-3-methoxy-2-oxo-4-phenylpyridin-1(2H)-yl)-N-hydroxy-2-methyl-2-(methylsulfonyl)butanamide] | 8.07 | 4 (≈ 9.7 µM) | 64 (≈ 155 µM) | 8 (≈ 19.4 µM) | 
C[C@@](CCn1cc(F)c(-c2ccc3c(c2)CCO3)cc1=O)(C(=O)NO)S(C)(=O)=O [Example 5, (2R)-4-[4-(2,3-Dihydro-1-benzofuran-5-yl)-5-fluoro-2-oxopyridin-1(2H)-yl]-N-hydroxy-2-methyl-2-(methylsulfonyl)butanamide] | 0.822 | 1 (≈ 2.36 µM) | > 64 | 1 (≈ 2.36 µM) | 
C[C@@](CCn1cc(F)c(-c2ccc(OC3COC3)cc2)cc1=O)(C(=O)NO)S(C)(=O)=O [Example 15, (2R)-4-{5-fluoro-4-[4-(oxetan-3-yloxy)phenyl]-2-oxopyridin-1(2H)-yl}-N-hydroxy-2-methyl-2-(methylsulfonyl)butanamide] | 2.05 | 16 (≈ 35.2 µM) | > 64 | 16 (≈ 35.2 µM) | 
CSc1ccc(-c2cc(=O)n(CC[C@](C)(C(=O)NO)S(C)(=O)=O)cc2F)cc1 [Example 9, (2R)-4-{5-Fluoro-4-[4-(methylthio)phenyl]-2-oxopyridin-1(2H)-yl}-N-hydroxy-2-methyl-2-(methylsulfonyl)butanamide] |  | 0.25 (≈ 0.583 µM) | > 64 | 0.5 (≈ 1.17 µM) | 0.51
C[C@@](CCn1cc(F)c(-c2ccc(-n3nccn3)cc2)cc1=O)(C(=O)NO)S(C)(=O)=O [Example 26, (2R)-4-{5-Fluoro-2-oxo-4-[4-(2H-1,2,3-triazol-2-yl)phenyl]pyridin-1(2H)-yl}-N-hydroxy-2-methyl-2-(methylsulfonyl)butanamide] | 0.0743 | ≤ 0.06 | > 64 | 0.25 (≈ 0.556 µM) | 
C[C@@](CCn1cc(F)c(-c2ccc(Cl)cc2)cc1=O)(C(=O)NO)S(C)(=O)=O [Example 3, (2R)-4-[4-(4-Chlorophenyl)-5-fluoro-2-oxopyridin-1(2H)-yl]-N-hydroxy-2-methyl-2-(methylsulfonyl)butanamide] | 0.325 | 0.25 (≈ 0.6 µM) | 64 (≈ 154 µM) | 0.25 (≈ 0.6 µM) | 
COc1ccc(-c2cc(=O)n(CC[C@](C)(C(=O)NO)S(C)(=O)=O)cc2F)cc1C [Example 34, (2R)-4-[5-Fluoro-4-(4-methoxy-3-methylphenyl)-2-oxopyridin-1(2H)-yl]-N-hydroxy-2-methyl-2-(methylsulfonyl)butanamide] | 0.834 | 0.25 (≈ 0.586 µM) | > 64 | 0.5 (≈ 1.17 µM) | 
